This is an account of results in ChEMBL document CHEMBL1165899, “Synthesis and antitumor evaluation of novel cyclic arylsulfonylureas: ADME-T and pharmacophore prediction” (2010).

Format in all cases: functional
For one assay, the system named is SK-MEL-2. In words: Growth inhibition of human SK-MEL-2 cells at 10 uM after 48 hrs by sulforhodamine B assay relative to control. As to conditions: SK-MEL-2, 48 h, read-out: GI.
In another assay the test system is M14. In words: Growth inhibition of human M14 cells at 10 uM after 48 hrs by sulforhodamine B assay relative to control. As to conditions: M14, 48 h, read-out: GI.
In another assay the test system is OVCAR-8. The assay can be described thus: Growth inhibition of human OVCAR8 cells at 10 uM after 48 hrs by sulforhodamine B assay relative to control. As to conditions: OVCAR-8, 48 h, read-out: GI.
The test system of a further assay is IGROV-1. In words: Growth inhibition of human IGROV1 cells at 10 uM after 48 hrs by sulforhodamine B assay relative to control. As to conditions: IGROV-1, 48 h, read-out: GI.
The subject of another assay is RXF 393. The assay can be described thus: Growth inhibition of human RXF393 cells at 10 uM after 48 hrs by sulforhodamine B assay relative to control. As to conditions: RXF 393, 48 h, read-out: GI.

As to `O=c1c2ccccc2n(S(=O)(=O)c2ccc(Cl)cc2)c(=O)n1-c1ccccc1`, the inhibition of growth at 10 µM with SK-MEL-2 is 79.3%; in the assay with M14, 17.4%; with OVCAR-8 it was 40.9%; with IGROV-1, 91.4%.

For `COc1ccc(N2C(=O)CC(=O)N(S(=O)(=O)c3ccc(Cl)cc3)C2=O)cc1`, the inhibition of growth at 10 µM with SK-MEL-2 is 61.1%; with M14, -3.04%; in the assay on OVCAR-8, 42.4%; with IGROV-1, 76.5%.

Consider `COc1ccc(/C=C2\NC(=O)N(S(=O)(=O)c3ccccc3)C2=O)cc1`, for which the inhibition of growth at 10 µM is 11.6% in the assay with SK-MEL-2, 96.5% in the assay on RXF 393, 5.23% with OVCAR-8 and 115% in the assay on IGROV-1.

Take `COc1ccc(-n2c(=O)c3ccccc3n(S(=O)(=O)c3ccccc3)c2=O)cc1`: the inhibition of growth at 10 µM with SK-MEL-2 was -43.2%; in the assay on M14, 56.5%; in the assay on RXF 393 it was 43%; with OVCAR-8, 26%; with IGROV-1, 63.2%.

`Cc1ccc(S(=O)(=O)N2C(=O)CC(=O)N(c3ccc(Cl)cc3)C2=O)cc1`: the inhibition of growth at 10 µM with SK-MEL-2 is 73.9%; with M14 it was -7.35%; with OVCAR-8, 54.1%; in the assay on IGROV-1, 65.6%.

Turning to `CN(C)c1ccc(/C=C2\NC(=O)N(S(=O)(=O)c3ccccc3)C2=O)cc1`, the inhibition of growth at 10 µM in the assay on SK-MEL-2 is 3.98%; in the assay with M14, -2.88%; in the assay on RXF 393, 80.3%; in the assay with OVCAR-8, 1.17%; with IGROV-1, 107%.

`O=c1c2ccccc2n(S(=O)(=O)c2ccccc2)c(=O)n1-c1ccccc1`: the inhibition of growth at 10 µM is 70.4% with SK-MEL-2, 1.02% in the assay on M14, 33.2% in the assay with OVCAR-8 and 86.8% in the assay on IGROV-1.

With `COc1ccc(/C=C2\NC(=O)N(S(=O)(=O)c3ccc(Cl)cc3)C2=O)cc1`, the inhibition of growth at 10 µM in the assay on SK-MEL-2 is 8.98%; with RXF 393, 84.1%; in the assay with OVCAR-8 it was -1.23%; in the assay with IGROV-1 it was -1.97%.

Consider `O=C1N/C(=C\c2ccccc2)C(=O)N1S(=O)(=O)c1ccc(Cl)cc1`, for which the inhibition of growth at 10 µM is 11.7% in the assay with SK-MEL-2, 0.92% with RXF 393, 3.88% in the assay on OVCAR-8 and -9.05% in the assay on IGROV-1.

Take `O=C1CC(=O)N(S(=O)(=O)c2ccc(Cl)cc2)C(=O)N1c1ccccc1`: the inhibition of growth at 10 µM in the assay with SK-MEL-2 came out at 65.1%; in the assay with M14, 8.19%; in the assay on OVCAR-8 it was 58.9%; with IGROV-1 it was 34.1%.

Take `O=C1N/C(=C\c2ccc(Cl)cc2)C(=O)N1S(=O)(=O)c1ccccc1`: the inhibition of growth at 10 µM in the assay with SK-MEL-2 worked out at 19.9%; with RXF 393, 7.42%; with OVCAR-8, 6.79%; in the assay with IGROV-1 it was 1.13%.

Take `O=C1N/C(=C\c2ccc(Cl)cc2)C(=O)N1S(=O)(=O)c1ccc(Cl)cc1`: the inhibition of growth at 10 µM was 17.6% with SK-MEL-2; -20.1% in the assay with M14; 76.2% with RXF 393; 4.01% in the assay on OVCAR-8; 81% in the assay on IGROV-1.
